From patent publication US6316644A, “Pilyethoxylated retinamide derivatives and process for preparing the same” (LG Chemical Ltd., priority 1998, dated 2001)
Like-named read-outs stand apart in the source and are kept apart here.

Legend:
skin photoaging = conditions: cited from earlier work
[1] = relative to retinoic acid; FASEB J., 10, 1014-1024, 1996; cited from earlier work
[2] = test system: skin of 9-weeks aged naked female mouse; test: Test for organ incubation of skin (MTT assay)
Procedure: (§1) The test for organ incubation of skin was carried out by MTT assay method using naked female mouse.

[3] = lipid-soluble; cited from earlier work
human fibroblasts = test: Test for collagen synthesis (tritiated proline, CSP)
Procedure: The same count of human fibroblasts was incubated in each well of 24-well plate for 24 hours and then the test sample was applied thereto at the concentration of 10^-4 to 10^-7 w %/ml. After 2 hours, tritiated proline (L-2,3-^3 H proline) was applied to the plate and then further incubated for 24 hours. The amount of collagen as newly synthesized and secreted by fibroblasts utilizing the culture medium was measured by calculating the amount of CPS (collagenous sensitive protein) on the basis of cpm (counting per minute) number of L-2,3-^3 H proline.

skin = conditions: guinea pig, in vivo
Procedure: Assoc. Food and Drug Officials, US. Appraisal of the safety of chemicals in Food, Drugs and Cosmetics, pp46-59, Texas State Dept. of Health, Austin, Tex. and 2 Federal Register (1973): Method of testing primary irritant substances 38(187): pp1500-1541]. Six kinds of the test solutions were prepared at the concentration of 0.3% by using o/w formulation or Lexol GT-865 as the carrier vehicle. First, hair was removed from the portion (dorsal skin of mouse) for applying the test solution and then the naked portion was adapted to the environmental circumstance for 24 hours in order to minimize the skin irritability. The test solution and gauze were applied to the established portion (1.5 cm×1.5 cm) for applying the test solution, which was then sealed with the solid thin film and fixed with the elastic bandage for 48 hours in order to inhibit the evaporation and loss of the test sample. After 2 and 24 hours from removal of the closed patch (i. e. 50 and 72 hours after patch application, respectively), the degree of irritation was determined.

[4] = pH 7.4
Procedure: The tests for identification of pharmacological activities of the compound of formula (I) according to the present invention were conducted as follows. First, the test for percutaneous absorption was carried out by cutting off the dorsal skin from 8-weeks aged female mouse, applying the test sample (35 mM) to the skin and then analysing the percutaneous absorption of the test sample by means of an apparatus for measuring percutaneous absorption (Franz cell) and HPLC.
Specifically, the dorsal skin of 8-weeks aged female mouse (naked mouse) was cut off and then 35 ml solution of the test sample was applied in an amount of 250 μl to the skin having a size of 1.7cm^2. Using the apparatus for measuring percutaneous absorption (Franz cell), after 24 hours, the absorbed materials were extracted respectively from 7 ml of the receptor solution [50 mM PBS buffer solution (pH=7.4) containing 2% VolPO20 Polyethylene oleyl ether (HLB=16)] and the skin and then quantitatively analyzed by high pressure liquid chromatography (HPLC).

auricular lymph node = conditions: mouse, in vivo
Procedure: Toxicol. 10(3); 173-180]. […] Each of the test sample was applied to both ears of Blab/c mouse in an amount of 50μl for 3 days and then auricular lymph node was isolated from mouse. Lymph node was micronized to monocellular state and then incubated for 24 hours with addition of radioisotope (^3 H-thymidine).

[5] = test system: skin of 9-weeks aged naked female mouse
Procedure: as §1

V79-4 cells = test: Cytotoxicity test (MTT assay); type: cell-based, Chinese hamster; conditions: FIG. 2
Procedure: The cytotoxicity test was carried out by MTT assay method using V79-4 cells.

[6] = 0.3% in Lexol GT-865, MTT assay

Q: Which “inhibition of skin cancer and photoaging” value (skin photoaging; U.S. Pat. No. 4,677,120) does the source give for `COc1ccc(C(C)=O)c(OC(=O)/C=C(C)/C=C/C=C(C)/C=C/C2=C(C)CCCC2(C)C)c1` [2-(all-trans-retinoyloxy)-4-methoxyacetophenone] here?
A: exhibits an effect of inhibiting skin cancer and photoaging

Q: For `CC1=C(/C=C/C(C)=C/C=C/C(C)=C/C(=O)Nc2ccc(O)cc2)C(C)(C)CCC1` [N-(4-hydroxy-phenyl)retinamide (4-HPR), N-(4-hydroxy-phenyl)retinamide], which toxicity [1] is on record?
A: relatively reduced toxicity

Q: Which results are given for `CC1=C(/C=C/C(C)=C/C=C/C(C)=C/C(=O)O)C(C)(C)CCC1` [Retinoic acid, all-trans-retinoic acid]?
A: irritation ([2]; 0.3%): strong irritation; Degree of irritation [2, 6]: 0.11; Safety [2, 6]: strong irritation; skin photoaging (skin photoaging; cream preparation applied to skin, JAMA 259, 1988): can be improved; skin absorption [3]: low skin absorption; activation at 1e-06 w %/ml (human fibroblasts; Homo sapiens, Fibroblast, read-out: increase in collagen synthesis): ≤ 21.7%; difference between the irritation degrees (skin): no significant difference; Receptor solution (amount absorbed) [4]: 11.40 nmol; allergy induction in comparison to ethanol (auricular lymph node): six times or more

Q: Which results are given for `CCCCCCCCCCCCCCCC(=O)OC/C=C(C)/C=C/C=C(C)/C=C/C1=C(C)CCCC1(C)C` [Retinol palmitate, retinol palmitate]?
A: Degree of irritation [5]: 0.34; Safety [5]: minute irritation; irritation [5]: weak irritation; effect of increasing collagen synthesis (human fibroblasts; 10^-4 to 10^-7 w %/ml, FIG. 1): does substantially not exhibit an effect of increasing collagen synthesis; difference between the irritation degrees (skin): no significant difference; Receptor solution (amount absorbed) [4]: 0.48 nmol; allergy induction in comparison to ethanol (auricular lymph node): six times or more

Q: For `CC1=C(/C=C/C(C)=C/C=C/C(C)=C/CO)C(C)(C)CCC1` [Retinol, retinol], which “Receptor solution (amount absorbed)” value [4] is on record?
A: 11.48 nmol

Q: With `CCCCCCCCCCCCOS(=O)(=O)[O-].[Na+]` [Sodium lauryl sulfate] as the compound, how does the Safety ([2]; control group, <0.05%) read?
A: minute irritation

Q: What about the Safety ([2]; control group, <0.25%) of the same compound?
A: moderate irritation

Q: And the Safety ([2]; control group, <0.5%)?
A: strong irritation

Q: With `CC1=C(/C=C/C(C)=C/C=C/C(C)=C/C(=O)O[C@@H]2O[C@H](C(=O)O)[C@@H](O)[C@H](O)[C@H]2O)C(C)(C)CCC1` [retinoyl β-glucuronide (RAG), retinoyl β-glucuronide] as the compound, how does the toxicity [1] read?
A: relatively reduced toxicity

Q: With “polyethoxylated retinamide of formula (I) (R=methyl, n=9.8)” as the compound, how does the “effect of increasing collagen synthesis at cytotoxic concentration” value (human fibroblasts; 10^-3 w %/ml or more) read?
A: does not exhibit any increasing effect

Q: And the “increase in collagen synthesis (highest effect)” value (human fibroblasts; 10^-7 w %/ml)?
A: 33.8%

Q: And the “concentration at which effect of increasing collagen synthesis begins” value (human fibroblasts; limiting concentration at which any toxicity is not caused)?
A: below 10^-4 w %/ml

Q: And the cytotoxicity (V79-4 cells; 10^-3 w %/ml or more)?
A: exhibits gradually

Q: What about the cytotoxicity (V79-4 cells; 10^-4 w %/ml and below) of the same compound?
A: only a weak toxicity
